Experimental data published in patent publication US20210395313A1, “PEPTIDE PAC1 ANTAGONISTS” (AMGEN INC., priority 2017, published 2021).
Where a SMILES comes first, the peptide text is derived from it. Bridges are numbered along the chain shown (N, C = ends). Where no end group is shown, it is not given here.

Each compound was assayed against T1, rat PAC1 receptor (Rattus norvegicus, UniProt P32215) (assay: LANCE Ultra cAMP accumulation antagonist assay in RG-2 cells;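 also: RG-2 rat glioma cells endogenously expressing PAC1, test peptide preincubated 30 min, then PAC1 agonist added at its EC80 for 15 min, cAMP accumulation read by LANCE Ultra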).
T1 construct: SHSY-5Y (human neuroblastoma cell line) and RG-2 (rat glioma cell line) cells endogenously express human and rat PAC1 receptors, respectively; endogenous in cells; host or cells: RG-2 rat glioma cells
T1 sequence (P32215 20-523): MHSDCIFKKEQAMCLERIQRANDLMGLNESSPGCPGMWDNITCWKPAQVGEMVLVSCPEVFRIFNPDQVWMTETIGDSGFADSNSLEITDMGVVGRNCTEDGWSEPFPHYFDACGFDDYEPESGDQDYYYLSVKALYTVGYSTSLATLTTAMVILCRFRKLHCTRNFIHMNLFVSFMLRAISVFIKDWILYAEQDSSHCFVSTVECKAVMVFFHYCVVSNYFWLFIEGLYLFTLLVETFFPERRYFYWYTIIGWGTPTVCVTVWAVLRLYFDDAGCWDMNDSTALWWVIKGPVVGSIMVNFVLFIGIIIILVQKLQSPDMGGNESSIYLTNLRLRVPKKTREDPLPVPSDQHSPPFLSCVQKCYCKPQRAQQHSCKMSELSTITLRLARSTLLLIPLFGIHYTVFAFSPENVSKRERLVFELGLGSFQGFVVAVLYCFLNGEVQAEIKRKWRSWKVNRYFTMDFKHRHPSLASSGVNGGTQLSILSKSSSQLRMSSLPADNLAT
Type: cell-based

Question: `CC[C@H](C)[C@H](NC(=O)[C@H](C)NC(=O)[C@H](CCCCN)NC(=O)[C@H](CCCNC(=N)N)NC(=O)[C@H](Cc1ccccc1)NC(=O)[C@H](CCC(N)=O)NC(=O)[C@@H]1CSSC[C@H](N)C(=O)N[C@@H](CC(=O)O)C(=O)N[C@@H](C)C(=O)N[C@@H]([C@@H](C)O)C(=O)N1)C(=O)N[C@@H](CC(=O)O)C(=O)N[C@@H](CC(=O)O)C(=O)N[C@H]1CSSC[C@@H](C(=O)N[C@@H](CCSC)C(=O)N[C@@H](CCCCN)C(=O)N[C@@H](CCC(N)=O)C(=O)N[C@@H](CCCCN)C(=O)N[C@@H](CCCCN)C(=O)N[C@@H](CCCCN)C(=O)N[C@@H](CCC(=O)O)C(=O)N[C@@H](Cc2c[nH]c3ccccc23)C(=O)N[C@@H](CCCCN)C(=O)N[C@@H](C)C(=O)NCC(N)=O)NC(=O)[C@H](C)NC(=O)[C@H](CCCCN)NC(=O)[C@H](Cc2ccccc2)NC(=O)[C@H](C(C)C)NC(=O)[C@H](CO)NC(=O)[C@H](C)NC(=O)[C@H](Cc2c[nH]cn2)NC(=O)[C@H](Cc2ccc(O)cc2)NC(=O)[C@H](C)NC(=O)[C@H](CCC(N)=O)NC(=O)[C@H](CCCNC(=N)N)NC(=O)[C@H](C)NC1=O` [compound 428] (H-CDATCQFRKAIDDCARQAYHASVFKACMKQKKKEWKAG-NH2; disulfide 1-5, 14-27) was tested. Which IC50 did it give?
Answer: < 0.01 nM

Question: How did the IC50 turn out when `CC[C@H](C)[C@H](NC(=O)[C@H](C)NC(=O)[C@H](CCCCN)NC(=O)[C@H](CCCNC(=N)N)NC(=O)[C@H](Cc1ccccc1)NC(=O)[C@H](CCC(N)=O)NC(=O)[C@@H]1CSSC[C@H](N)C(=O)N[C@@H](CC(=O)O)C(=O)N[C@@H](C)C(=O)N[C@@H]([C@@H](C)O)C(=O)N1)C(=O)N[C@@H](CC(=O)O)C(=O)N[C@@H](CC(=O)O)C(=O)N[C@H]1CSSC[C@@H](C(=O)N[C@@H](CCSC)C(=O)N[C@@H](CCCCN)C(=O)N[C@@H](CCC(N)=O)C(=O)N[C@@H](CCCCN)C(=O)N[C@@H](CCCCN)C(=O)N[C@@H](CCCCN)C(=O)N[C@@H](CCC(=O)O)C(=O)N[C@@H](Cc2c[nH]c3ccccc23)C(=O)N[C@@H](CCCCN)C(=O)N[C@@H](C)C(=O)NCC(=O)N[C@@H](Cc2c[nH]cn2)C(=O)O)NC(=O)[C@H](C)NC(=O)[C@H](CCCCN)NC(=O)[C@H](Cc2ccccc2)NC(=O)[C@H](CO)NC(=O)[C@H](Cc2c[nH]cn2)NC(=O)[C@H](Cc2ccc(O)cc2)NC(=O)[C@H](C)NC(=O)[C@H](CCC(N)=O)NC(=O)[C@H](CCCNC(=N)N)NC(=O)[C@H](C)NC1=O` [compound 439] (H-CDATCQFRKAIDDCARQAYHSFKACMKQKKKEWKAGH-OH; disulfide 1-5, 14-25) was run?
Answer: 0.01 to 1 nM

Question: With `CC[C@H](C)[C@H](NC(=O)[C@H](C)NC(=O)[C@H](CCCCN)NC(=O)[C@H](CCCNC(=N)N)NC(=O)[C@H](Cc1ccccc1)NC(=O)[C@H](CCC(N)=O)NC(=O)[C@@H]1CSSC[C@H](N)C(=O)N[C@@H](CC(=O)O)C(=O)N[C@@H](C)C(=O)N[C@@H]([C@@H](C)O)C(=O)N1)C(=O)N[C@@H](CC(=O)O)C(=O)N[C@@H](CC(=O)O)C(=O)N[C@H]1CSSC[C@@H](C(=O)N[C@@H](CCSC)C(=O)N[C@@H](CCCCN)C(=O)N[C@@H](CCC(N)=O)C(=O)N[C@@H](CCCCN)C(=O)N[C@@H](CCCCN)C(=O)N[C@@H](CCCCN)C(=O)N[C@@H](CCC(=O)O)C(=O)N[C@@H](Cc2ccccc2)C(=O)N[C@@H](CCCCN)C(=O)N[C@@H](C)C(=O)NCC(=O)O)NC(=O)[C@H](C)NC(=O)[C@H](CCCCN)NC(=O)[C@H](Cc2ccccc2)NC(=O)[C@H](C(C)C)NC(=O)[C@H](CO)NC(=O)CNC(=O)[C@@H]2CCCN2C(=O)[C@H](C(C)C)NC(=O)[C@H](CC(N)=O)NC(=O)[C@H](CO)NC(=O)[C@H](Cc2c[nH]cn2)NC(=O)[C@H](Cc2c[nH]cn2)NC(=O)[C@H](C)NC(=O)[C@H](CCC(N)=O)NC(=O)[C@H](CCCCN)NC(=O)[C@H](CCC(N)=O)NC1=O` [SEQ ID NO 190] as the compound, how does the IC50 read?
Answer: 0.01 to 1 nM

Question: How did the IC50 turn out when `CC[C@H](C)[C@H](NC(=O)[C@H](C)NC(=O)[C@H](CCCCN)NC(=O)[C@H](CCCNC(=N)N)NC(=O)[C@H](Cc1ccccc1)NC(=O)[C@H](CCC(N)=O)NC(=O)[C@@H]1CSSC[C@H](N)C(=O)N[C@@H](CC(=O)O)C(=O)N[C@@H](C)C(=O)N[C@@H]([C@@H](C)O)C(=O)N1)C(=O)N[C@@H](CC(=O)O)C(=O)N[C@@H](CC(=O)O)C(=O)N[C@H]1CSSC[C@@H](C(=O)N[C@@H](CCSC)C(=O)N[C@@H](CCCCN)C(=O)N[C@@H](CCC(N)=O)C(=O)N[C@@H](CCCCN)C(=O)N[C@@H](CCCCN)C(=O)N[C@@H](CCCCN)C(=O)N[C@@H](CCC(=O)O)C(=O)N[C@@H](Cc2c[nH]c3ccccc23)C(=O)N[C@@H](CCCCN)C(=O)N[C@@H](C)C(=O)NCC(=O)N[C@@H](Cc2c[nH]cn2)C(=O)O)NC(=O)[C@H](C)NC(=O)[C@H](CCCCN)NC(=O)[C@H](Cc2ccccc2)NC(=O)[C@H](CCC(N)=O)NC(=O)[C@H](CCCNC(=N)N)NC(=O)[C@H](C)NC1=O` [compound 447] (H-CDATCQFRKAIDDCARQFKACMKQKKKEWKAGH-OH; disulfide 1-5, 14-21) was run?
Answer: 0.01 to 1 nM

Question: How did the IC50 turn out when `CC[C@H](C)[C@H](NC(=O)[C@H](C)NC(=O)[C@H](CCCCN)NC(=O)[C@H](CCCNC(=N)N)NC(=O)[C@H](Cc1ccccc1)NC(=O)[C@H](CCC(N)=O)NC(=O)[C@@H]1CSSC[C@H](N)C(=O)N[C@@H](CC(=O)O)C(=O)N[C@@H](C)C(=O)N[C@@H]([C@@H](C)O)C(=O)N1)C(=O)N[C@@H](CC(=O)O)C(=O)N[C@@H](CC(=O)O)C(=O)N[C@H]1CSSC[C@@H](C(=O)N[C@@H](CCSC)C(=O)N[C@@H](CCCCN)C(=O)N[C@@H](CCC(N)=O)C(=O)N[C@@H](CCCCN)C(=O)N[C@@H](CCCCN)C(=O)N[C@@H](CCCCN)C(=O)N[C@@H](CCC(=O)O)C(=O)N[C@@H](Cc2c[nH]c3ccccc23)C(=O)N[C@@H](CCCCN)C(=O)N[C@@H](C)C(=O)NCC(N)=O)NC(=O)[C@H](CO)NC(=O)[C@H](CCCCN)NC(=O)[C@H](Cc2ccccc2)NC(=O)[C@H](C(C)C)NC(=O)[C@H](CO)NC(=O)[C@H](CO)NC(=O)[C@H](Cc2c[nH]cn2)NC(=O)[C@H](Cc2ccc(O)cc2)NC(=O)[C@H](C)NC(=O)[C@H](CCC(N)=O)NC(=O)[C@H](CCCNC(=N)N)NC(=O)[C@H](C)NC1=O` [compound 430] (H-CDATCQFRKAIDDCARQAYHSSVFKSCMKQKKKEWKAG-NH2; disulfide 1-5, 14-27) was run?
Answer: < 0.01 nM

Question: How did the IC50 turn out when “CDATCQFRKAIDDCANKSWHSNVPGSVFKLCMKQKKKEWKAGH-NH2 (disulfide 1-5, 14-31) [compound 445]” was run?
Answer: > 100 nM

Question: How did the IC50 turn out when “CDATCQFRKAIDDCQKQAHHSNVPGSVFKACMKQKKKEFKAGK (disulfide 1-5, 14-31) [compound 182]” was run?
Answer: 0.01 to 1 nM

Question: How did the IC50 turn out when `CC[C@H](C)[C@@H]1NC(=O)[C@@H](NC(=O)[C@H](CCCCN)NC(=O)[C@H](CCCNC(=N)N)NC(=O)[C@H](Cc2ccccc2)NC(=O)[C@H](CCC(N)=O)NC(=O)[C@H](CO)NC(=O)[C@@H](NC(=O)[C@H](C)NC(=O)[C@H](CC(=O)O)NC(=O)[C@@H](N)CO)[C@@H](C)O)CSSC[C@@H](C(=O)N[C@@H](CCCCN)C(=O)N[C@@H](CCC(N)=O)C(=O)N[C@@H](CCCCN)C(=O)N[C@@H](CCCCN)C(=O)N[C@@H](CCCCN)C(=O)N[C@@H](CCC(=O)O)C(=O)N[C@@H](Cc2c[nH]c3ccccc23)C(=O)N[C@@H](CCCCN)C(=O)N[C@@H](C)C(=O)NCC(=O)N[C@@H](Cc2c[nH]cn2)C(=O)O)NC(=O)[C@H](CO)NC(=O)[C@H](C)NC(=O)[C@H](CCCCN)NC(=O)[C@H](Cc2ccccc2)NC(=O)[C@H](C)NC(=O)CNC(=O)[C@H](CO)NC(=O)[C@H](CC(=O)O)NC(=O)[C@H](CC(=O)O)NC1=O` [compound 441] (H-SDATSQFRKCIDDSGAFKASCKQKKKEWKAGH-OH; disulfide 10-21) was run?
Answer: 1 to 100 nM
